Literature values in patent US20150374773A1, “Homeopathic Composition Comprising Hypericum Perforatum Extract And Essential Oils For The Treatment Of Neuropathic Pain” (NEURAGEN CORP., priority 2008, published 2015).

System: neuropathic pain
Details: literature statement

| Structure (SMILES) | efficacy in neuropathic pain |
| --- | --- |
| Nc1nnc(-c2cccc(Cl)c2Cl)c(N)n1 [Lamotrigine] | no better than placebo |
| NCC1(CC(=O)O)CCCCC1 [gabapentin] | effective in painful diabetic neuropathy, mixed neuropathies, and postherpetic neuralgia |
